Some results are limits rather than exact numbers.

Consider 6 substances from patent US20020151707A1, “Immune mediators and related methods” (Corixa Corp., priority 1995, published 2002).

One assay has as its system NOD MHC Class II I-A^g7. The note with it: known from the literature (Reich et al.); cited from earlier work.
The subject of assay [1] is T cell lines derived from one HLA-DRB1*0404 patient (ThHo). In words: Reactivity of GAD-reactive human T cell lines to synthetic GAD peptides (3H-thymidine proliferation). The format is cell-based. As to conditions: for number of T cell lines stimulated: of 4 T cell lines. The method, then: T-cell clones were rested (not given IL-2 for 2 days, at least 7 days post-stimulation with antigen), washed, counted and resuspended in 15% PHS medium. They were plated at 25,000 cells/well in […] 15% PHS medium. Autologous or HLA-class II-matched PBMNCs are loaded with GAD by incubating with GAD (about […]) for at least 5 hours. The cells are washed and irradiated with 3000 rads. These cells are washed and resuspended in 15% PHS medium, and added to the T-cells at a concentration of 1×10^6 cells/well in […] 15% PHS medium. The cells were incubated for 48 hours, then pulsed with […] 3H-thymidine and harvested. A positive response is considered to be a stimulation index >3 (stimulation index SI=average cpm of sample stimulated with antigen/average cpm of sample of cells stimulated with no antigen or control antigen). Some controls include T-cells alone, stimulators alone, a purified negative antigen, GAD purified from baculovirus, PHA, and IL-2.
Other methods, well known in the art, for testing clones and lines include dose response to antigen; response to these antigens or negative antigen controls; determination of HLA-class II restriction by adding blocking anti-HLA class II antibody to plates; and use of peptides to load stimulators to determine peptide specificity, which can be done as described above except the peptides are tested by dose titration and left in the assay. A dose response in combination with peptide specificity tests can also be done.
Four individual T cell lines derived from one HLA-DRB1*0404 patient (ThHo) were used to map the 74 synthetic GAD peptides, overlapping sets of 20 mers, that span the entire length of GAD 65 (SEQ. ID. NO. 59). Antigen presenting cells, BLS-DRB1*0404 and/or BLS-DRB1*0401 (Kovats et al., J. Exp. Med. 179:2017-22, 1994), were loaded with peptide by incubating with peptide (about […]) for at least 5 hours. Reactivity of T-cells was determined as above. One peptide, hGAD 33 ([…] SEQ. ID. NO. 40) stimulated 3 or the 4 lines with BLS-B1*0404. […]

The test system of assay [2] is C-terminal amidated GAD65+I-A^g7 restricted T cell hybridomas (MBD.1, MBD2.3, MBD2.7, MBD2.8, MBD2.11, MBD2.14). In words: Activation of GAD65 restricted T-cell hybridomas, read as CTLL proliferation in response to IL-2. In kind it is cell-based, NOD mouse. The note with it: hybridoma MBD.1; peptide + I-A^g7 of NOD APCs; CTLL cells. The method, then:
To determine specificity of the T-cell hybridomas, antigen-presenting cells (APCs) were prepared by grinding NOD mice spleens and lysing as in Example 11. The splenocytes were brought to 3 ml in Bruff's medium containing 10% FBS. Mitomycin C (Sigma) was added at 0.3 ml per 3 ml of cell suspension to prevent DNA synthesis. The APCs were incubated for 30 minutes in a 37° C. water bath, and then washed 3 times in Bruff's medium containing 10% FBS, each time centrifuging for 5 minutes at 1200 RPM. After the final wash, the APCs were brought to a concentration of 2×10^6 cells/ml in Bruff's medium containing 10% FBS. C-terminal amidated GAD65 peptide was titered from 333 μg/ml to 0.15 μg/ml in round bottom 96 well plates. Fifty microliters (1×10^5) APCs were added to the peptides. Hybridomas were counted and brought to a concentration of 1×10^6 cells/ml in Bruff's medium containing 10% FBS, and 100 μl (1×10^5) cells was added to each well. Hybridomas were also tested against the following: I-A^g7 MHC +a peptide other than C-terminal amidated GAD65; an MHC other than I-A^g7+C-terminal amidated GAD65; the I-A^g7 MHC alone; and C-terminal amidated GAD65 alone. The plate was incubated at 37° C., 5% CO2, overnight. […] Incorporation of ^3H-thymidine into the DNA was measured on a Wallac 1205 Betaplate Beta Counter (Turku, Finland). […]

The test system of a further assay is NOD recipient mice. The assay is described as follows: Adoptive transfer of IDDM with splenocytes from diabetic NOD mice. The format is in vivo, NOD mouse. The source says: IDDM can also be adoptively transferred by transplanting splenic cells from a diabetic-donor to a non-diabetic recipient (Baron et al., J. Clin. Invest. 93:1700-08, 1994). This method involves treating in vivo activated mature T cells. Briefly, NOD/CaJ mice are irradiated (730 rad) and randomly divided into treatment groups. Splenocytes, preferably about 1.5×10^7, from newly diabetic mice are isolated and injected intravenously into non-diabetic NOD 7-8 week old recipient mice, followed six hours later with intravenous injections of saline, peptide or MHC:peptide complex at 10, 5, or 1 μg/mouse. The injections are repeated on days 4, 8 and 12 following the original injection. Mice are tested for the onset of diabetes by urine analysis, and at the time of sacrifice, blood glucose. Treatment of these mice with an MHC:peptide complex is expected to lengthen the time period before the onset of diabetes and/or to prevent or ameliorate the disease. […]
IDDM can be adoptively transferred by injecting splenic cells from a diabetic donor into a non-diabetic recipient. […] Those animals showing positive urine values of at least 250 mg/dl glucose were further analyzed for blood glucose levels using tail clippings, and if the blood glucose was also at or above 250 mg/dl, the mice were classified as overtly diabetic. […]

On to “MSA: Mouse serum albumin (MSA), a known allele-specific peptide (SEQ. ID. NO. 61), positive control”, for which the “affinity for I-A^g7 (control peptides)” value in the assay on NOD MHC Class II I-A^g7 was “high affinity”.
As for PGGAISNMYA [ID; NO; 41], the “stimulation of T-cell line, HLA restriction” value in assay [1] (APC BLS-B1*0404 versus BLS-DRB1*0401) is listed as “stimulated the same T-cell line only when presented by BLS-B1*0404”.
As for PGGAISNMYAM [ID; NO; 39], the “number of T cell lines stimulated” value in assay [1] (presented by either BLS-B1*0404 or BLS-DRB1*0401) is given as “one”.
On to “PGGAISNMYAMMIARFKMFP (PGGAISNMYAMMIARFKNFP) [hGAD 33, ID; NO; 40]”, for which, in assay [1] (peptide presented by BLS-B1*0404), the “number of T cell lines stimulated” value is on record as 3.
In the case of “SRLSKVAPVIKARMMEYGTT [same GAD65 peptide (aa 524-543) with a carboxylic group at the C-terminus]”, the “proliferative response (lesser response)” value in assay [2] was > 2000 CMP.
Take “SRLSKVAPVIKARMMEYGTT-NH2 [C-terminal amidated GAD65 peptide]”: the “mice that had developed disease by day 30” value in the assay on NOD recipient mice (10 μg/mouse peptide alone) is recorded as “over 75%”. In the assay with NOD recipient mice (mouse, in vivo), the “overall effect on onset of diabetes in the adoptive transfer model” value was “accelerated the onset of diabetes”. The “proliferative response, incorporated 3H-thymidine” value in assay [2] was > 5000 cpm.
